IC50 data for 55 compounds are collected here from patent US20130165426A1, “IMIDAZOPYRIDINE, IMIDAZOPYRIMIDINE AND IMIDAZOPYRAZINE DERIVATIVES AS MELANOCORTIN-4 RECEPTOR MODULATORS” (UNIVERSITÉ DE MONTRÉAL, priority 2010, published 2013).

pIC50: −log10 of the molar value. Some results are limits rather than exact numbers.

This assay concerns the target T1, wild-type human melanocortin 4 receptor (WT-hMC4R) (Homo sapiens, UniProt P32245).
T1 construct: expressed in transfected cells
The assay can be described thus: Cyclic AMP assay (HTRF), antagonist competition against NDP-α-MSH. The class given is cell-based. The settings on record: HEK293T cells stably expressing WT-hMC4R; inhibition of response to 4 nM NDP-α-MSH; cAMP. The method, then:
The general procedures described above were used to prepare the examples described below. Reported HPLC retention time are for reverse-phase HPLC (Agilent, 1200 series) using the conditions reported above (See “General” section). Mass spectra were recorded on a 6210 G1969A LC/MSD TOF spectrometer from Agilent Technologies using the LC conditions reported above (See “General” section). IC50 values were obtained using the cAMP assay described below.
IC50 value is the half maximal concentration of the tested compound to inhibit half of the maximal response of the agonist NDP-α-MSH. It is a measurement of the antagonist compound potency.
Intracellular cyclic 3′-5′ adenosine monophosphate (cAMP) accumulation was measured using a competitive immunoassay based on HTRF (Homogeneous Time-Resolved Fluorescence) technology (cAMP dynamic-2, Cis-Bio).
HEK293T stable cell line expressing double-tagged WT-hMC4R construct were collected and washed in cAMP buffer (1×D-PBS pH 7.4, 0.1% glucose). 40,000 cells/well were then dispensed in 96-well plates in cAMP buffer [1×D-PBS, 1% BSA, 0.1% Glucose, 0.75 mM 3-isobutyl-1-methyl-xanthine (IBMX, Sigma)] and incubated either for antagonist competition assay: 1 hour at 37° C. with various concentrations of compound [0.01 nM-10 μM] followed by 30 min incubation at 37° C. with 4 nM of NDP-α-MSH (Sigma) or for agonist assay: 1 hour at 37° C. with various concentrations of compound [0.01 nM-10 μM]. 10,000 cells were transferred in 384-well plates, lysed and incubated with cAMP labeled with the dye d2 and anti-cAMP M-Antidody labeled with Cryptate following the manufacturer's protocol.
Reading of HTRF signal was performed on Artemis TR-FRET plate reader (Cosmo Bio).
All curve fitting was conducted using non-linear regression analyses from PRISM (version 4.0c, GraphPad Inc.) and the determination of Rmax and EC50 or IC50 parameters were obtained from sigmoidal dose-response phase (variable slope) equation.
A cDNA encoding a wild-type human MC4R with a 3 tandem copies of Hemaglutinine (HA) epitote sequence from UMR cDNA resource center was modified using known techniques in the art (e.g., PCR, cloning) to fused in frame at the C-terminal a venus-Yellow Fluorescent Protein (YFP) cDNA.
The resultant cDNA was then subcloned in eukaryotic expression vector, e.g. pcDNA 3.1(+) (Invitrogen).
The double tagged WT-hMC4R was transfected in HEK293T cells with lipofectamine (Invitrogen) following the manufacturer's instructions and permanently transfected clonal cell lines were selected by resistance to the neomycin analog G418.
HEK293T stable cell line expressing wild-type human melanocortin 4 receptor (WT-hMC4R) containing an N-terminal 3×HA epitope tag and an intracellular C-terminal venus-yellow fluorescent protein (v-YFP) were maintained at 37° C. in humidified air containing 5% CO2 in Dulbecoo's modified Eagle's medium (DMEM) supplemented with 10% fetal bovine serum (FBS), 100 U/ml penicillin/streptomycin (DMEM complete/10% FBS). Cells were generally at 70%-80% confluence on the day of assay.
(In general: In TR-FRET formats the signal depends on donor and acceptor labels being close together.)

T1 sequence (P32245 whole entry): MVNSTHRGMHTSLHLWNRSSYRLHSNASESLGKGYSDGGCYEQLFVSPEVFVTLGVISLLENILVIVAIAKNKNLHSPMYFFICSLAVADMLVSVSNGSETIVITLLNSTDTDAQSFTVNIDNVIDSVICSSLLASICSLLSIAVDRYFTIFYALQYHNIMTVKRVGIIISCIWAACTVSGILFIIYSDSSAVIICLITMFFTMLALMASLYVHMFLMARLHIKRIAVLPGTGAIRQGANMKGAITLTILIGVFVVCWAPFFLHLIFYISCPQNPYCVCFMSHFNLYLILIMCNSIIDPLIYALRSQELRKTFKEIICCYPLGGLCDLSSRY

Regarding `CCCCCN(CCCCC)C(=O)c1cc2c(cn1)nc(Nc1ccc(OC)cc1)n2CCCN1CCCCC1` [Cpd 36], the negative-log IC50 (pIC50) is > 7.00.
As for `CCCCN(CCCC)C(=O)c1ccc2nc(NC3CCCCC3)n(CCCN3CCCCC3)c2n1` [Cpd 49], the pIC50 was 6.00 to 7.00.
In turn, `CCCCN(CCCC)C(=O)c1ccc2nc(N)n(CCCN3CCCCC3)c2n1` [Cpd 40] showed a pIC50 of 4.82 to 6.00.
The same measure for `CCCCN(CCCC)C(=O)c1ccc2nc(Nc3ccc(C(=O)N(C)C)cc3)n(CCCN3CCCCC3)c2n1` [Cpd 56]: 6.00 to 7.00; for `CCCCN(CCCC)C(=O)c1ccc2nc(Nc3ccc(C(=O)OC)cc3)n(CCCN3CCCCC3)c2n1` [Cpd 48]: > 7.00; for `CCCCN(CCCC)C(=O)c1ccc2nc(NC(=O)OCC)n(CCCN3CCCCC3)c2n1` [Cpd 39]: 4.82 to 6.00.
`CC(=O)N1CCC(c2nc3ccc(C(=O)N(CCC(C)C)CCC(C)C)nc3n2CCCN2CCOCC2)CC1` [Cpd 78] gave a pIC50 of 4.82 to 6.00.
For the compound `COCCN(CCOC)C(=O)c1ccc2nc(Nc3ccc(OC)cc3)n(CCCN3CCCCC3)c2n1` [Cpd 17], the pIC50 is 4.82 to 6.00.
The compound `CCCN(C(=O)c1ccc2nc(Nc3ccc(OC)cc3)n(CCCN3CCCCC3)c2n1)C(C)CC` (stereo not shown) [Cpd 25] had a pIC50 of 6.00 to 7.00.
For the compound `CCCCN(CCCC)C(=O)c1ccc2nc(Nc3ccc(OC)cc3)n(CCCN3CCCCC3C)c2n1` (stereo not shown) [Cpd 18], the pIC50 is > 7.00.
Consider `CCCCN(CCCC)C(=O)c1ccc2nc(-c3cc(F)ccc3Br)n(CCCN3CCCCC3)c2n1` [Cpd 42], for which the pIC50 is 4.82 to 6.00.
`CC(C)CCN(CCC(C)C)C(=O)c1ccc2nc(NCc3ccc4c(c3)OCO4)n(CCCN3CCOCC3)c2n1` [Cpd 76] showed a pIC50 of 6.00 to 7.00.
The compound `COc1ccc(-c2nc3cnc(C(=O)N(CCC(C)C)CCC(C)C)nc3n2CCCN2CCCCC2)cc1` [Cpd 54] gave a pIC50 of 6.00 to 7.00.
The same measure for `CCCCN(CCCC)C(=O)c1ccc2nc(NC(C)C)n(CCCN3CCCCC3)c2n1` [Cpd 34]: 4.82 to 6.00; for `COC(=O)c1ccc(Nc2nc3ccc(C(=O)N(CCC(C)C)CCC(C)C)nc3n2CCCN2CCCCC2)cc1` [Cpd 71]: > 7.00; for `COc1ccc(-c2nc3ccc(C(=O)N(CCC(C)C)CCC(C)C)nc3n2CCCN2CCCCC2)cc1` [Cpd 72]: 6.00 to 7.00.
Compound `CCCCN(CCCC)C(=O)c1ccc2nc(Nc3cccc4ccccc34)n(CCCN3CCCCC3)c2n1` [Cpd 45] had a pIC50 of 6.00 to 7.00.
In the case of `CC(C)CCN(CCC(C)C)C(=O)c1ccc2nc(-c3ccc4c(c3)OCO4)n(CCCN3CCCCC3)c2n1` [Cpd 73], the negative logarithm of the IC50 (pIC50) is 6.00 to 7.00.
Consider `CCCCN(CCCC)C(=O)c1ccc2nc(-c3cccc(C#N)c3)n(CCCN3CCCCC3)c2n1` [Cpd 4, N,N-dibutyl-2-(3-cyanophenyl)-3-(3-(piperidin-1-yl)propyl)-3H-imidazo[4,5-b]pyridine-5-carboxamide], for which the pIC50 is 4.82 to 6.00.
In turn, `CCCCN(CCCC)C(=O)c1ccc2nc(Nc3ccc(C(=O)N4CCN(C)CC4)cc3)n(CCCN3CCCCC3)c2n1` [Cpd 58] showed a negative logarithm of the IC50 (pIC50) of 6.00 to 7.00.
In the case of `CCCCN(CCCC)C(=O)c1ccc2nc(Nc3ccc(C(=O)N4CCCCC4)cc3)n(CCCN3CCCCC3)c2n1` [Cpd 57], the pIC50 was 6.00 to 7.00.
With `CCN(CCOC)C(=O)c1ccc2nc(Nc3ccc(OC)cc3)n(CCCN3CCCCC3)c2n1` [Cpd 7], the pIC50 was 4.82 to 6.00.
Take `CCCCN(CCCC)C(=O)c1ccc2nc(Nc3ccc(C(C)=O)cc3)n(CCCN3CCCCC3)c2n1` [Cpd 32]: the pIC50 was > 7.00.
In turn, `CCCCN(CCCC)C(=O)c1cc2c(cn1)nc(Nc1ccc(OC)cc1)n2CCCN1CCCCC1` [Cpd 31] gave a negative-log IC50 (pIC50) of 6.00 to 7.00.
With `COc1ccc(-c2nc3ccc(C(=O)N(CCC(C)C)CCC(C)C)nc3n2CCCN2CCOCC2)cc1` [Cpd 77], the negative-log IC50 (pIC50) is 4.82 to 6.00.
`CCCCN(CCCC)C(=O)c1ccc2nc(-c3ccc(Br)cc3)n(CCCN3CCCCC3)c2n1` [Cpd 43] had a pIC50 of 4.82 to 6.00.
`CC(=O)c1ccc(Nc2nc3ccc(C(=O)N(CCC(C)C)CCC(C)C)nc3n2CCCN2CCCCC2)cc1` [Cpd 68]: the pIC50 is > 7.00.
As to `CCCCN(CCCC)C(=O)c1ccc2nc(Nc3cccnc3)n(CCCN3CCCCC3)c2n1` [Cpd 35], the negative logarithm of the IC50 (pIC50) is > 7.00.
In the case of `CC(C)CCN(CCC(C)C)C(=O)c1ccc2nc(Nc3ccc(C(C)O)cc3)n(CCCN3CCCCC3)c2n1` (stereo not shown) [Cpd 69], the pIC50 is > 7.00.
Consider `CC(C)CCN(CCC(C)C)C(=O)c1ccc2nc(Nc3ccc(C(C)(C)O)cc3)n(CCCN3CCCCC3)c2n1` [Cpd 70], for which the pIC50 was > 7.00.
The value for `CCCCN(CCCC)C(=O)c1ccc(Nc2nc3ccc(C(=O)N(CCCC)CCCC)nc3n2CCCN2CCCCC2)cc1` [Cpd 55] was 6.00 to 7.00; that for `CCCCCN(CCCCC)C(=O)c1ccc2nc(Nc3ccc(OC)cc3)n(CCCN3CCCCC3)c2n1` [Cpd 14] was > 7.00.
For the compound `CCCCN(CCCC)C(=O)c1ccc2nc(Nc3ccc(OC)cc3)n(C3CCN(Cc4ccccc4)CC3)c2n1` [Cpd 26], the pIC50 is 4.82 to 6.00.
For the compound `COc1ccc(Nc2nc3ccc(C(=O)N(CCC(C)C)CCC(C)C)nc3n2C2CCN(Cc3ccccc3)CC2)cc1` [Cpd 27], the pIC50 was 4.82 to 6.00.
The same measure for `CCCCN(CCCC)C(=O)c1ccc2nc(Oc3ccc(OC)cc3)n(CCCN3CCCCC3)c2n1` [Cpd 62]: 6.00 to 7.00.
Regarding `CCCCN(CCCC)C(=O)c1ccc2nc(-c3cc(Br)ccc3OC)n(CCCN3CCCCC3)c2n1` [Cpd 44], the pIC50 was 6.00 to 7.00.
The value for `COc1ccc(Nc2nc3cnc(C(=O)N(CCC(C)C)CCC(C)C)cc3n2CCCN2CCCCC2)cc1` [Cpd 37] was > 7.00; that for `CCCCN(CCCC)C(=O)c1cnc2nc(Nc3ccc(OC)cc3)n(CCCN3CCCCC3)c2n1` [Cpd 50] was 6.00 to 7.00; that for `COc1ccc(Nc2nc3ccc(C(=O)N(CCC4CC4)CCC4CC4)nc3n2CCCN2CCCCC2)cc1` [Cpd 30] was > 7.00.
Turning to `CCCCN(CCCC)C(=O)c1cc2c(cn1)nc(Nc1ccccc1)n2CCCN1CCCCC1` [Cpd 51], the pIC50 was 6.00 to 7.00.
As for `COc1ccc(Nc2nc3ccc(C(=O)N(CCC(C)C)CCC(C)C)nc3n2CCCN2CCOCC2)cc1` [Cpd 74], the pIC50 is 6.00 to 7.00.
As for `COc1ccc(Br)cc1-c1nc2cnc(C(=O)N(CCC(C)C)CCC(C)C)cc2n1CCCN1CCCCC1` [Cpd 64], the pIC50 was 4.82 to 6.00.
The value for `CCCCN(CCCC)C(=O)c1ccc2nc(Nc3ccc(C(=O)O)cc3)n(CCCN3CCCCC3)c2n1` [Cpd 67] was 4.82 to 6.00; that for `CCCCN(CCCC)C(=O)c1ccc2nc(Nc3ccccc3)n(CCCN3CCCCC3)c2n1` [Cpd 8] was > 7.00; that for `CC(C)CCN(CCC(C)C)C(=O)c1cc2c(cn1)nc(-c1cc3ccccc3s1)n2CCCN1CCCCC1` [Cpd 65] was > 7.00.
As to `COc1ccc(Nc2nc3ccc(C(=O)N(CC(C)C)CC(C)C)nc3n2CCCN2CCCCC2)cc1` [Cpd 12], the pIC50 was 6.00 to 7.00.
The compound `COc1ccc(Nc2nc3ccc(C(=O)N4CCCCCC4)nc3n2CCCN2CCCCC2)cc1` [Cpd 21] had a pIC50 of 4.82 to 6.00.
Compound `CCC(C)N(C(=O)c1ccc2nc(Nc3ccc(OC)cc3)n(CCCN3CCCCC3)c2n1)C(C)CC` (stereo not shown) [Cpd 15] showed a pIC50 of 6.00 to 7.00.
`CCCCN(CCCC)C(=O)c1ccc2nc(-c3csc4ccccc34)n(CCCN3CCCCC3)c2n1` [Cpd 5, 2-(benzo[b]thiophen-3-yl)-N,N-dibutyl-3-(3-(piperidin-1-yl)propyl)-3H-imidazo[4,5-b]pyridine-5-carboxamide]: the pIC50 was 6.00 to 7.00.
For the compound `COc1ccc(Nc2nc3ccc(C(=O)N(CCC(C)C)CCC(C)C)nc3n2CCCN2CCCCC2)cc1` [Cpd 16], the pIC50 is > 7.00.
`CCC1CCC(C)N(C(=O)c2ccc3nc(Nc4ccc(OC)cc4)n(CCCN4CCCCC4)c3n2)C1` (stereo not shown) [Cpd 22] had a negative logarithm of the IC50 (pIC50) of 4.82 to 6.00.
Take `CCCCN(CCCC)Cc1ccc2nc(Nc3ccc(OC)cc3)n(CCCN3CCCCC3C)c2n1` (stereo not shown) [Cpd 28]: the pIC50 is 4.82 to 6.00.
Take `CCCCN(CCCC)C(=O)c1ccc2nc(Nc3ccc(CC)cc3)n(CCCN3CCCCC3)c2n1` [Cpd 33]: the pIC50 was 6.00 to 7.00.
On to `C=C(C)CNc1nc2ccc(C(=O)N(CCCC)CCCC)nc2n1CCCN1CCCCC1` [Cpd 41], for which the pIC50 is 4.82 to 6.00.
For `CC(C)CCN(CCC(C)C)C(=O)c1ccc2nc(Nc3cccnc3)n(CCCN3CCOCC3)c2n1` [Cpd 75], the negative logarithm of the IC50 (pIC50) is 6.00 to 7.00.

A word on the pIC50: it is the negative decadic logarithm of the IC50, by convention in mol/L. Read a high pIC50 as a low IC50.
